In ChEMBL document CHEMBL1135579, “Serine-threonine protein phosphatase inhibitors: development of potential therapeutic strategies” (J Med Chem, 2002):

Assays:
[1] = target: Serine/threonine-protein phosphatase PP1-gamma catalytic subunit (Homo sapiens, UniProt P36873, R96A); assay: Inhibition of Serine/threonine protein phosphatase 1 (PP1) mutant type R96A by compound was evaluated
[2] = target: Serine/threonine-protein phosphatase PP1-gamma catalytic subunit (Homo sapiens, UniProt P36873, D208A); assay: Inhibition of Serine/threonine protein phosphatase 1 (PP1) mutant type D208A by compound was evaluated
[3] = target: Serine/threonine-protein phosphatase PP1-gamma catalytic subunit (Homo sapiens, UniProt P36873, R221S); assay: Inhibition of Serine/threonine protein phosphatase 1 (PP1) mutant type R221S by compound was evaluated
[4] = target: Serine/threonine-protein phosphatase PP1-gamma catalytic subunit (Homo sapiens, UniProt P36873, E275R); assay: Inhibition of Serine/threonine protein phosphatase 1 (PP1) mutant type E275R by compound was evaluated
[5] = target: Serine/threonine-protein phosphatase PP1-gamma catalytic subunit (Homo sapiens, UniProt P36873, D220V); assay: Inhibition of Serine/threonine protein phosphatase 1 (PP1) mutant type D220V by compound was evaluated
[6] = Exogenous inhibition of Serine/threonine protein phosphatase 1 (PP1); design: species or system Homo sapiens
[7] = target: Serine/threonine-protein phosphatase PP1-gamma catalytic subunit (Homo sapiens, UniProt P36873, N124D); assay: Inhibition of Serine/threonine protein phosphatase 1 (PP1) mutant type N124D by compound was evaluated
[8] = target: Serine/threonine-protein phosphatase PP1-gamma catalytic subunit (Homo sapiens, UniProt P36873, H248N); assay: Inhibition of Serine/threonine protein phosphatase 1 (PP1) mutant type H248N by compound was evaluated
[9] = target: T1, Serine/threonine-protein phosphatase PP1-gamma catalytic subunit (Homo sapiens, UniProt P36873); assay: Inhibition of Serine/threonine protein phosphatase 1 (PP1) mutants by natural toxins in wild type
Target sequence in this assay (P36873 2-323 limits assumed, stated change not applied): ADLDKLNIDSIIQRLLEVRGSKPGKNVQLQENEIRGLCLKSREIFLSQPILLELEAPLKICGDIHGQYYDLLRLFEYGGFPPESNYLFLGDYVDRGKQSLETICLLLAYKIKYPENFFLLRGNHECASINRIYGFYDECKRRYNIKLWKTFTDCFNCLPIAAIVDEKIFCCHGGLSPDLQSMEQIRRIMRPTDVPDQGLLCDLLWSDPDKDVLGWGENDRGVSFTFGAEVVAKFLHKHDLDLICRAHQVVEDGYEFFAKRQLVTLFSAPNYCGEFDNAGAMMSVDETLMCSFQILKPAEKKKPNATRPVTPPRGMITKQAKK

[10] = Exogenous inhibition concentration of Serine/threonine protein phosphatase 4 (PP4)
[11] = target: Serine/threonine-protein phosphatase PP1-gamma catalytic subunit (Homo sapiens, UniProt P36873, C127S); assay: Inhibition of Serine/threonine protein phosphatase 1 (PP1) mutant type C127S by compound was evaluated
[12] = target: Serine/threonine-protein phosphatase PP1-gamma catalytic subunit (Homo sapiens, UniProt P36873, Y272F); assay: Inhibition of Serine/threonine protein phosphatase 1 (PP1) mutant type Y272F by compound was evaluated
[13] = Exogenous inhibition concentration of Serine/threonine protein phosphatase 2C (PP2C); NI means no inhibition.
[14] = Exogenous inhibition concentration of Serine/threonine protein phosphatase 2B (PP2B)
[15] = target: T1, Serine/threonine-protein phosphatase PP1-gamma catalytic subunit; assay: Inhibition of Serine/threonine protein phosphatase 1 by anhydride modified Cantharidin analogues
Target sequence in this assay (P36873 whole entry): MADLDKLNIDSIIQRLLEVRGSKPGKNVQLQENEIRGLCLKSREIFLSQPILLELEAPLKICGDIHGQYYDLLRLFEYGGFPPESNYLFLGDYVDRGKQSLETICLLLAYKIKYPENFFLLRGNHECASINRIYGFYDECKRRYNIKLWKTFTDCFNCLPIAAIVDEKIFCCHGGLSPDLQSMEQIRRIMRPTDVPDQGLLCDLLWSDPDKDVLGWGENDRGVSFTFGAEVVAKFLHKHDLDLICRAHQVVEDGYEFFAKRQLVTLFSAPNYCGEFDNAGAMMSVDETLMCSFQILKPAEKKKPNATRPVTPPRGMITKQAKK

[16] = Inhibition of growth after 72 hr continuous exposure to test compounds in Ovarian A2780 tumor cell lines; type: functional; conditions: A2780, 72 h
[17] = Inhibition of growth after 72 hr continuous exposure to test compounds in colon HT-29 tumor cell lines; type: functional; conditions: Homo sapiens, HT-29, 72 h
[18] = Inhibition of growth after 72 hr continuous exposure to test compounds in Ovarian ADDP tumor cell lines; type: functional
[19] = target: T2, Serine-threonine protein phosphatase 2A regulatory subunit (Gallus gallus) (UniProt Q8AWE3); assay: Tested for selective inhibition of Serine/threonine protein phosphatase 2A (PP2A) with respect to inhibition of Serine/threonine protein phosphatase 1 (PP1)
T2 sequence (whole entry): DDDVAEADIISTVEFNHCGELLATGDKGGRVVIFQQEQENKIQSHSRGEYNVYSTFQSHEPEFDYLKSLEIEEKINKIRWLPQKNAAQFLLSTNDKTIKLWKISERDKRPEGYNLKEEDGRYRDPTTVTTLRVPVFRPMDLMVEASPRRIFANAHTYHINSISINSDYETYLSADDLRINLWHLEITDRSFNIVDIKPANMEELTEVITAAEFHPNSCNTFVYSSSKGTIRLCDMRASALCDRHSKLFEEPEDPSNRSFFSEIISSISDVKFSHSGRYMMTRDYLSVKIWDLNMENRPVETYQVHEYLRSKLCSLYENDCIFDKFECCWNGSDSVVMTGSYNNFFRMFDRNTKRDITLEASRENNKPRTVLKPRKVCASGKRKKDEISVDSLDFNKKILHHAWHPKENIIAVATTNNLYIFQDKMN

[20] = Inhibition of growth after 72 hr continuous exposure to test compounds in Colon HCT 116 tumor cell lines; type: functional; conditions: Homo sapiens, HCT-116, 72 h
[21] = Inhibition of growth after 72 hr continuous exposure to test compounds in Osteosarcoma 143B tumor cell lines; type: functional; conditions: Homo sapiens
[22] = target: T3, Serine-threonine protein phosphatase 2A regulatory subunit (Gallus gallus, UniProt Q8AWE3); assay: Inhibition of Serine/threonine protein phosphatase 2A by anhydride modified Cantharidin analogues
T3 sequence (Q8AWE3 whole entry): T2 sequence (whole entry)

[23] = Selectivity for interaction at Serine/threonine protein phosphatase 2B (PP2B); conditions: read-out: Ki app

Serine/threonine-protein phosphatase PP1-gamma catalytic subunit (Homo sapiens, UniProt P36873, D220V), sequence (P36873 2-323 D220V limits assumed): as the sequence (P36873 2-323 limits assumed, stated change not applied) above, with D219V counted along it
Serine/threonine-protein phosphatase PP1-gamma catalytic subunit (Homo sapiens, UniProt P36873, N124D), sequence (P36873 2-323 N124D limits assumed): as the sequence (P36873 2-323 limits assumed, stated change not applied) above, with N123D counted along it
Serine/threonine-protein phosphatase PP1-gamma catalytic subunit (Homo sapiens, UniProt P36873, C127S), sequence (P36873 2-323 C127S limits assumed): as the sequence (P36873 2-323 limits assumed, stated change not applied) above, with C126S counted along it
Serine/threonine-protein phosphatase PP1-gamma catalytic subunit (Homo sapiens, UniProt P36873, D208A), sequence (P36873 2-323 D208A limits assumed): as the sequence (P36873 2-323 limits assumed, stated change not applied) above, with D207A counted along it
Serine/threonine-protein phosphatase PP1-gamma catalytic subunit (Homo sapiens, UniProt P36873, R221S), sequence (P36873 2-323 R221S limits assumed): as the sequence (P36873 2-323 limits assumed, stated change not applied) above, with R220S counted along it
Serine/threonine-protein phosphatase PP1-gamma catalytic subunit (Homo sapiens, UniProt P36873, E275R), sequence (P36873 2-323 E275R limits assumed): as the sequence (P36873 2-323 limits assumed, stated change not applied) above, with E274R counted along it
Serine/threonine-protein phosphatase PP1-gamma catalytic subunit (Homo sapiens, UniProt P36873, H248N), sequence (P36873 2-323 H248N limits assumed): as the sequence (P36873 2-323 limits assumed, stated change not applied) above, with H247N counted along it
Serine/threonine-protein phosphatase PP1-gamma catalytic subunit (Homo sapiens, UniProt P36873, R96A), sequence (P36873 2-323 R96A limits assumed): as the sequence (P36873 2-323 limits assumed, stated change not applied) above, with R95A counted along it
Serine/threonine-protein phosphatase PP1-gamma catalytic subunit (Homo sapiens, UniProt P36873, Y272F), sequence (P36873 2-323 Y272F limits assumed): as the sequence (P36873 2-323 limits assumed, stated change not applied) above, with Y271F counted along it

Work on `C=C1[C@@H](O)[C@@H]2O[C@]3(CC[C@H](/C=C/[C@@H](C)[C@@H]4CC(C)=C[C@@]5(O[C@H](C[C@@](C)(O)C(=O)O)CC[C@H]5O)O4)O3)CC[C@H]2O[C@@H]1[C@@H](O)C[C@H](C)[C@H]1O[C@@]2(CCCCO2)CC[C@H]1C` [OKADAIC ACID] yielded an IC50 [1] of 0.26 µM, an IC50 [2] of over 5 µM and an IC50 [3] of over 5 µM. It also gave an IC50 [4] of 0.048 µM, an IC50 [5] of 0.028 µM and an IC50 [6] of 0.003 µM. The IC50 [7] was over 5 µM, the IC50 [8] was over 5 µM and the IC50 [9] was 0.045 µM. The IC50 [10] was 0.0002 µM, the IC50 [11] was 0.078 µM and the IC50 [12] was 1.15 µM. For the same molecule, the IC50 [13] was “no inhibition” and the IC50 [14] was over 10000 µM.
`CCOC(=O)C1C(C(=O)O)C2CC[C@H]1O2` (stereo not given in full) showed an IC50 [15] of 2.96 µM, a GI50 [16] of 185 µM and a GI50 [17] of 243 µM. The GI50 [18] was 330 µM, the PP2A Selectivity [19] was 6.6 and the GI50 [20] was 266 µM. It also gave a GI50 [21] of 437 µM and an IC50 [22] of 0.45 µM.
Molecule `O=C(O)C1C2C[C@H](COC(=O)C3C[C@H]3c3ccccc3)[C@@H](O2)C1C(=O)O` (stereo not given in full) has a Ki [23] of 0.5 µM, an IC50 [6] of 4 µM and an IC50 [14] of 11.5 µM.
